The source of these data is US20110218188A1, “SUBSTITUTED (PYRIDYL)-AZINYLAMINE DERIVATIVES AS FUNGICIDES” (priority 2008, published 2011).

Each structure is given as a SMILES string. Marks after values point to notes of the source that are not given here.

The first data set is described as follows: Measurement of logP values by HPLC on reversed phase columns (EEC directive 79/831 Annex V.A8). The format is physicochemical. The following applies: pH 2.3.
Take `CN(C)C(=O)c1cccc(-c2ccnc(Nc3ccnc(Cl)c3)n2)n1` [Example A34]: the logP was 1.96^[b].
Same read-out and setting: then `O=C(c1cccc(-c2ccnc(Nc3ccnc(Cl)c3)n2)n1)N1CCC1` [Example A35], with 2.21^[b]; and `CCN(C)C(=O)c1cccc(-c2ccnc(Nc3ccnc(Cl)c3)n2)n1` [Example A36], with 2.25^[b].

The same data set, now with this note: pH 2.7.
For `CCCN(C)C(=O)c1cc(Nc2nccc(-c3ccnc(C(=O)N(C)CCC)c3)n2)ccn1` [Example A14], the logP turned out to be 1.59.
Still for that read-out and setting: the same measure for `CN(CC1CCCO1)C(=O)c1cc(-c2ccnc(Nc3ccnc(Cl)c3)n2)ccn1` (centres unmarked) [Example A15]: 1.99; for `CN(CC1CCCO1)C(=O)c1cc(Nc2nccc(-c3ccnc(C(=O)N(C)CC4CCCO4)c3)n2)ccn1` (centres unmarked) [Example A16]: 1.35.
Compound `CCN(C)C(=O)c1cc(-c2ccnc(Nc3ccnc(Cl)c3)n2)ccn1` [Example A17, 4-{2-[(2-chloropyridin-4-yl)amino]pyrimidin-4-yl}-N-ethyl-N-methylpyridine-2-carboxamide] registered a chromatographic logP of 1.91.
With `CCN(C)C(=O)c1cc(-c2ccnc(Nc3ccnc(C(F)(F)F)c3)n2)ccn1` [Example A18], the logP worked out at 2.22.
As for `CCN(C)C(=O)c1cc(Nc2nccc(-c3ccnc(C(=O)N(C)CC)c3)n2)ccn1` [Example A19, N-ethyl-4-[2-({2-[ethyl(methyl)carbamoyl]pyridin-4-yl}amino)pyrimidin-4-yl]-N-methylpyridine-2-carboxamide], the chromatographic logP came out at 1.19.
For the compound `O=C(NCCCN1CCCCCC1=O)c1cc(-c2ccnc(Nc3ccnc(Cl)c3)n2)ccn1` [Example A20], the logP is on record as 2.33.
Still for that read-out and setting: the same measure for `O=C(NCCCN1CCCCCC1=O)c1cc(Nc2nccc(-c3ccnc(C(=O)NCCCN4CCCCCC4=O)c3)n2)ccn1` [Example A21]: 2.33; for `O=C(c1cc(-c2ccnc(Nc3ccnc(Cl)c3)n2)ccn1)N1CCOCC1` [Example A22]: 1.69.
Compound `O=C(c1cc(Nc2nccc(-c3ccnc(C(=O)N4CCOCC4)c3)n2)ccn1)N1CCOCC1` [Example A23] registered a logP of 0.92.
Consider `CN(CCC#N)C(=O)c1cc(-c2ccnc(Nc3ccnc(Cl)c3)n2)ccn1` [Example A24], for which the logP is recorded as 1.78.
Regarding `C=CCN(C)C(=O)c1cc(-c2ccnc(Nc3ccnc(Cl)c3)n2)ccn1` [Example A25], the logP is 2.13.
Same read-out and setting: then `CCCN(CC)C(=O)c1cc(-c2ccnc(Nc3ccnc(Cl)c3)n2)ccn1` [Example A26], with 2.51; and `CCN(CC)C(=O)c1cc(-c2ccnc(Nc3ccnc(Cl)c3)n2)ccn1` [Example A27], with 2.17; and `CC(C)N(C)C(=O)c1cc(-c2ccnc(Nc3ccnc(Cl)c3)n2)ccn1` [Example A28], with 2.13.
Still for that read-out and setting: then `CCC(C)N(C)C(=O)c1cc(-c2ccnc(Nc3ccnc(Cl)c3)n2)ccn1` (centres unmarked) [Example A29], with 2.47.
Still for that read-out and setting: the same measure for `CC(C)=CCN(C)C(=O)c1cc(-c2ccnc(Nc3ccnc(Cl)c3)n2)ccn1` [Example A30]: 2.66; for `CN(CC1CC1)C(=O)c1cc(-c2ccnc(Nc3ccnc(Cl)c3)n2)ccn1` [Example A31]: 2.28; for `CN(C)C(=O)c1cc(-c2ccnc(Nc3ccnc(Cl)c3)n2)ccn1` [Example A32]: 1.69.
`CCN(CC)C(=O)c1cccc(-c2ccnc(Nc3ccnc(Cl)c3)n2)n1` [Example A33] came in with a logP of 2.6.
Regarding `CCN(CC)C(=O)c1cc(-c2ccnc(Nc3ccc(C(C)(C)C)s3)n2)ccn1` [Example A39, 4-{2-[(5-tert-butyl-2-thienyl)amino]pyrimidin-4-yl}-N,N-diethylpyridine-2-carboxamide], the chromatographic logP is 3.62.
On the same count and under the same terms, then `CCN(CC)C(=O)c1cc(-c2nc(Nc3ccsc3)ncc2C)ccn1` [Example A41, N,N-diethyl-4-[5-methyl-2-(3-thienylamino)pyrimidin-4-yl]pyridine-2-carboxamide], with 2.61.
`Cc1ccc(Nc2nccc(-c3ccnc(C(=O)N(C)C)c3)n2)s1` [Example A48] registered a log partition coefficient (logP) of 2.13.
On the same count and under the same terms, then `CN(CCC#N)C(=O)c1cc(-c2ncnc(Nc3cccc(F)c3)n2)ccn1` [Example B1], with 2.22.
Still for that read-out and setting: the same measure for `CCN(CC)C(=O)c1cc(-c2ncnc(Nc3cccc(F)c3)n2)ccn1` [Example B2]: 2.72.
`CCCN(C)C(=O)c1cc(-c2ncnc(Nc3cccc(F)c3)n2)ccn1` [Example B3] returned a logP of 2.72.
Compound `CN(CC1CC1)C(=O)c1cc(-c2ncnc(Nc3cccc(F)c3)n2)ccn1` [Example B4] yielded a logP of 2.82. This logP and that of the compound before are within 0.2 log units of each other.
On the same count and under the same terms, then `CN(C)C(=O)c1cc(-c2ncnc(Nc3cccc(F)c3)n2)ccn1` [Example B5], with 2.13.
Still for that read-out and setting: the same measure for `CC(C)CN(C)C(=O)c1cc(-c2ncnc(Nc3cccc(F)c3)n2)ccn1` [Example B6]: 2.92; for `CCN(C)C(=O)c1cc(-c2ncnc(Nc3cccc(F)c3)n2)ccn1` [Example B7]: 2.4; for `CC(C)N(C)C(=O)c1cc(-c2ncnc(Nc3cccc(F)c3)n2)ccn1` [Example B8]: 2.67.
`COCCN(C)C(=O)c1cc(-c2ncnc(Nc3cccc(F)c3)n2)ccn1` [Example B9] showed a lipophilicity (logP) of 2.26.
Consider `CCN(C)C(=S)c1cc(-c2ncnc(Nc3cccc(F)c3)n2)ccn1` [Example B10], for which the logP stood at 2.94.
Regarding `CCN(CC)C(=S)c1cc(-c2ncnc(Nc3cccc(F)c3)n2)ccn1` [Example B11], the logP is on record as 3.31.
Still for that read-out and setting: the same measure for `CN(CC1CC1)C(=S)c1cc(-c2ncnc(Nc3cccc(F)c3)n2)ccn1` [Example B12]: 3.42; for `CCCN(C)C(=S)c1cc(-c2ncnc(Nc3cccc(F)c3)n2)ccn1` [Example B13]: 3.32.
On the same count and under the same terms, the same measure for `CN(CCC#N)C(=O)c1cc(-c2ncnc(Nc3ccc(F)cc3)n2)ccn1` [Example B14]: 2.14; for `CCN(CC)C(=O)c1cc(-c2ncnc(Nc3ccc(F)cc3)n2)ccn1` [Example B15]: 2.6.
The compound `CCCN(C)C(=O)c1cc(-c2ncnc(Nc3ccc(F)cc3)n2)ccn1` [Example B16] had a logP of 2.62.
Still for that read-out and setting: then `CN(CC1CC1)C(=O)c1cc(-c2ncnc(Nc3ccc(F)cc3)n2)ccn1` [Example B17], with 2.73; and `CN(C)C(=O)c1cc(-c2ncnc(Nc3ccc(F)cc3)n2)ccn1` [Example B18], with 2.02.
`CC(C)CN(C)C(=O)c1cc(-c2ncnc(Nc3ccc(F)cc3)n2)ccn1` [Example B19]: the lipophilicity (logP) was 2.92.
Same read-out and setting: the same measure for `CCN(C)C(=O)c1cc(-c2ncnc(Nc3ccc(F)cc3)n2)ccn1` [Example B20]: 2.28; for `CC(C)N(C)C(=O)c1cc(-c2ncnc(Nc3ccc(F)cc3)n2)ccn1` [Example B21]: 2.55; for `COCCN(C)C(=O)c1cc(-c2ncnc(Nc3ccc(F)cc3)n2)ccn1` [Example B22]: 3.92.
As to `CCN(C)C(=S)c1cc(-c2ncnc(Nc3ccc(F)cc3)n2)ccn1` [Example B23], the logP amounted to 2.8.
On the same count and under the same terms, the same measure for `COCC(C1CC1)N(C)C(=O)c1cc(-c2ncnc(Nc3ccc(F)cc3)n2)ccn1` (centres unmarked) [Example B24]: 2.8; for `COC(=O)c1cc(-c2ncnc(Nc3cccc(Cl)c3)n2)ccn1` [Example B25]: 2.79.
`CC(=O)c1cc(-c2ncnc(Nc3cccc(Cl)c3)n2)ccn1` [Example B26, 1-(4-{4-[(3-chlorophenyl)amino]-1,3,5-triazin-2-yl}pyridin-2-yl)ethanone] displayed a chromatographic logP of 3.32.
The same measure, in the same setting: then `CO/N=C(\C)c1cc(-c2ncnc(Nc3cccc(Cl)c3)n2)ccn1` [Example B27, N-(3-chlorophenyl)-4-{2-[(1E)-N-methoxyethanimidoyl]pyridin-4-yl}-1,3,5-triazin-2-amine], with 4.23.
As to `O=C(c1cc(-c2ncnc(Nc3cccc(Cl)c3)n2)ccn1)N1CCCC1` [Example B28], the lipophilicity (logP) was found to be 2.88.
Still for that read-out and setting: the same measure for `O=C(NCC1CCCO1)c1cc(-c2ncnc(Nc3cccc(Cl)c3)n2)ccn1` (centres unmarked) [Example B33]: 3.09; for `CCC(=O)c1cc(-c2ncnc(Nc3cccc(Cl)c3)n2)ccn1` [Example B45]: 3.79.
Same read-out and setting: the same measure for `O=C(NC1CC1)c1cc(-c2ncnc(Nc3cccc(Cl)c3)n2)ccn1` [Example B57]: 3.05.
`CNN=C(C)c1cc(-c2ncnc(Nc3cccc(Cl)c3)n2)ccn1` [Example B75] returned a logP of 2.27.
As to `CC(=NNCC(F)(F)F)c1cc(-c2ncnc(Nc3cccc(Cl)c3)n2)ccn1` [Example B76], the logP came to 3.58.
On to `CCOC(=O)CNN=C(C)c1cc(-c2ncnc(Nc3cccc(Cl)c3)n2)ccn1` [Example B77], for which the logP was determined as 3.02.
Compound `NC(=NO)c1cc(-c2ncnc(Nc3cccc(Cl)c3)n2)ccn1` [Example B78, 4-{4-[(3-chlorophenyl)amino]-1,3,5-triazin-2-yl}-N′-hydroxypyridine-2-carboximidamide] registered a chromatographic logP of 2.28.
Same read-out and setting: then `CC(=NNCCC#N)c1cc(-c2ncnc(Nc3cccc(Cl)c3)n2)ccn1` [Example B81, 3-{2-[1-(4-{4-[(3-chlorophenyl)amino]-1,3,5-triazin-2-yl}pyridin-2-yl)ethylidene]hydrazinyl}propanenitrile], with 2.5.
For `CC(=NNc1ccc(Cl)cc1)c1cc(-c2ncnc(Nc3cccc(Cl)c3)n2)ccn1` [Example B82], the logP is reported as 4.97.
The same measure, in the same setting: then `CC(C)NC(=O)c1cc(-c2ncnc(Nc3cccc(Cl)c3)n2)ccn1` [Example B91], with 3.62.
On the same count and under the same terms, then `CCCCNC(=O)c1cc(-c2ncnc(Nc3cccc(Cl)c3)n2)ccn1` [Example B93], with 4.11; and `CCC(C)NC(=O)c1cc(-c2ncnc(Nc3cccc(Cl)c3)n2)ccn1` (centres unmarked) [Example B94], with 4.04; and `CCC(CC#N)NC(=O)c1cc(-c2ncnc(Nc3cccc(Cl)c3)n2)ccn1` (centres unmarked) [Example B95], with 3.35.
On the same count and under the same terms, the same measure for `CCOC1CCC(NC(=O)c2cc(-c3ncnc(Nc4cccc(Cl)c4)n3)ccn2)CC1` (centres unmarked) [Example B97]: 4.39.

One may read the logP as the decadic logarithm of the partition coefficient of the neutral form, usually between octanol and water. A lower logP goes with a more hydrophilic compound. The term chromatographic logP denotes a lipophilicity value derived from retention on a column. High values mean higher lipophilicity, low ones lower lipophilicity.
